Measured values taken from paper PMC4427169, “Identification and structure solution of fragment hits against kinetoplastid N-myristoyltransferase” (Acta Crystallographica. Section F, Structural Biology …, 2015).
pKd: −log10 of the molar value. Several values for one entry are separate records, joined by “and”; a condition that tells them apart may be missing. Identical values can stand only once. Like-named read-outs stand apart in the source and are kept apart here.

Tests used:
[1] = target: T1, LmNMT (Leishmania major, UniProt Q4Q5S8); assay: Radiometric SPA-based enzyme-inhibition assay, LmNMT; format: biochemical; conditions: single fragment concentration of 0.5 mM
T1 construct: LmNMT (5–421) was cloned into a pET-15b-derived vector; 6xHis followed by TEV cleavage site (N); made in house; host or cells: E. coli Rosetta (DE3)
T1 sequence (Q4Q5S8 entry or part of it): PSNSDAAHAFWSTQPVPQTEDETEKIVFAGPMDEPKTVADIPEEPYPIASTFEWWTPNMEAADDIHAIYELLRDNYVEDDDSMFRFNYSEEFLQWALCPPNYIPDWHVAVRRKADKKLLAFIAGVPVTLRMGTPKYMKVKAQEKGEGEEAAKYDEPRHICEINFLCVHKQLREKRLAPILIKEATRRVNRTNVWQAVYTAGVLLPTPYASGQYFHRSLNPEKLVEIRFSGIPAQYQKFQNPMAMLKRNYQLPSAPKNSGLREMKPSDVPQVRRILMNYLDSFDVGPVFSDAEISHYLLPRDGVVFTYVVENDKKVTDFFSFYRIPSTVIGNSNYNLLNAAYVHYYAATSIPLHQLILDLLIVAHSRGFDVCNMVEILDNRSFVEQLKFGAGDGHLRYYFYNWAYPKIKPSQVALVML
Description: (§1) Activity assays for TbNMT and LmNMT were carried out using a radiometric SPA-based assay as described previously (Frearson et al., 2010[▶]; Brand et al., 2014[▶]). Percentage inhibition (PI) was determined using a fragment concentration of 0.5 mM in the assay.

[2] = target: T1, LmNMT; assay: Biolayer interferometry binding, LmNMT; conditions: for LE LmNMT, MYA (absence of cofactor) / LE LmNMT, +MYA: ligand efficiency calculated from K d; for LE LmNMT, MYA (absence of cofactor): absence of myristoyl-CoA; for increase of affinity in the presence of myristoyl-CoA, LmNMT: with vs without myristoyl-CoA; for LE LmNMT, +MYA: presence of myristoyl-CoA
Description: (§2) TbNMT and LmNMT were biotinylated by incubation with NHS-PEG4-biotin (Thermo) in a 1:1 molar ratio for 30 min at room temperature before free biotinylation reagent was removed by passage through a 2 ml Zeba desalt spin column (Thermo). Biolayer interferometry (BLI) measurements were carried out using an Octet RED 384 instrument (ForteBio). TbNMT and LmNMT were immobilized upon superstreptavidin (SSA) biosensors by incubation for 900 s at 25 and 50 µg ml^−1, respectively, before free streptavidin sites were blocked by a 60 s dip into 10 µg ml^−1 biocytin (Tocris). A control set of SSA biosensors were prepared in parallel by blocking the surface with biocytin. A seven-point concentration series was prepared for each fragment molecule in threefold dilution steps from a top concentration of 1 mM. For each set of biosensors, a 60 s baseline in buffer alone was acquired followed by a 60 s association step and a 180 s dissociation step. […] Data were processed and analysed and K d values were determined using the global fitting procedures as implemented in ForteBio Data Analysis Software v.7.0.1.5. The ligand efficiency metric was calculated using LE = −RTlnK d/heavy-atom count (Hopkins et al., 2004[▶]).

[3] = target: T2, TbNMT (Trypanosoma brucei brucei, UniProt Q388H8); assay: Fragment screen by ligand-observed NMR spectroscopy (STD, water-LOGSY, CPMG) with DDD85646 competition; conditions: fragments at 500 µM, binding and competition with 50 µM DDD85646 in STD
T2 sequence (Q388H8 1-446): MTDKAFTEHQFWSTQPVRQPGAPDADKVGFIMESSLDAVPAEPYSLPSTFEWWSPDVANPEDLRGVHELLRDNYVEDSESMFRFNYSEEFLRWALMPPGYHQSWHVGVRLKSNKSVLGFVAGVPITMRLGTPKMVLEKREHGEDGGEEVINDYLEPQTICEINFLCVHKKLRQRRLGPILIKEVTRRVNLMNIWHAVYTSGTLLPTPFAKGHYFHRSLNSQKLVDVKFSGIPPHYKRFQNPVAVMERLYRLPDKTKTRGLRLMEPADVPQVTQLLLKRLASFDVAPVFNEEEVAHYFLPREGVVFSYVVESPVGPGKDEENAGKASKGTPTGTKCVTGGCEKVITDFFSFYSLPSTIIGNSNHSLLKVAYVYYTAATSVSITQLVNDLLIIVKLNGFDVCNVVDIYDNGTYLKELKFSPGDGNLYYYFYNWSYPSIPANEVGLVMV
Description: TbNMT was prepared at 10 µM in 25 mM sodium phosphate pH 7.4 and 10% deuterated water and the cofactor myristoyl-CoA was added to a final concentration of 50 µM.

[4] = target: T2, TbNMT; assay: Biolayer interferometry binding, TbNMT; parameters: The gene encoding TbNMT was cloned into a pET-15-derived expression vector; 6xHis followed by TEV cleavage site (N); made in house; host or cells: Escherichia coli Rosetta (DE3); conditions: for LE TbNMT, MYA (absence of cofactor) / LE TbNMT, +MYA: ligand efficiency calculated from K d; for LE TbNMT, MYA (absence of cofactor): absence of myristoyl-CoA; for increase of affinity in the presence of myristoyl-CoA, TbNMT: with vs without myristoyl-CoA; for LE TbNMT, +MYA: presence of myristoyl-CoA
Description: as §2

[5] = target: T2, TbNMT; assay: Radiometric SPA-based enzyme-inhibition assay, TbNMT; format: biochemical; parameters: The gene encoding TbNMT was cloned into a pET-15-derived expression vector; 6xHis followed by TEV cleavage site (N); made in house; host or cells: Escherichia coli Rosetta (DE3); conditions: single fragment concentration of 0.5 mM
Description: as §1

[6] = parameters: method as in Frearson et al., 2010; conditions: ref Frearson et al., 2010; cited from earlier work
[7] = BLI, absence of the cofactor myristoyl-CoA (MYA), read-out: K d LmNMT, MYA (absence of cofactor)
[8] = BLI, presence of 1 µM myristoyl-CoA (MYA), read-out: K d LmNMT, +MYA
[9] = BLI, absence of the cofactor myristoyl-CoA (MYA), read-out: K d TbNMT, MYA (absence of cofactor)
[10] = BLI, presence of 1 µM myristoyl-CoA (MYA), read-out: K d TbNMT, +MYA

Row | SMILES | PI (%) LmNMT [1] | pKd [2] | LE LmNMT, MYA (absence of cofactor) [2] | NMR hit class [3] | pKd [4] | LE TbNMT, MYA (absence of cofactor) [4] | pKd [2, 7] | pKd [2, 8] | increase of affinity in the presence of myristoyl-CoA, LmNMT ([2]; BLI) | LE LmNMT, +MYA [2] | PI (%) TbNMT [5] | pKd [4, 9] | pKd [4, 10] | increase of affinity in the presence of myristoyl-CoA, TbNMT ([4]; BLI) | LE TbNMT, +MYA [4] | CNS exposure [6]
1 | Nc1ccccc1N1CCNCC1 [Fragment 4] | 53% | 4.01 | 0.42 | class II | 4.32 | 0.45 |  |  |  |  |  |  |  |  |  | 
2 | CNCc1cc(-c2ccccc2)nn1C [Fragment 3] | 52% |  | 0.28 | class II |  | < 0.3 and 0.30 | 3.15 | 3.74 | around fivefold | 0.34 | 70% | 3.28 | 3.70 | around fivefold | > 0.3 and 0.33 | 
3 | CNCc1cccc(CN2CCOCC2)c1 [Fragment 2] | 55% |  | 0.25 | class I |  | < 0.3 and 0.26 | 3.01 | 3.70 | around fivefold | 0.31 | 36% | 3.12 | 4.05 | around fivefold | > 0.3 and 0.34 | 
4 | Cc1nn(C)c(C)c1NS(=O)(=O)c1c(Cl)cc(-c2ccnc(N3CCNCC3)c2)cc1Cl [DDD85646] |  |  |  |  |  |  |  |  |  |  |  |  |  |  |  | lack of CNS exposure
